System: rabbit skeletal myofibrils (approximately 90% fast fibers)
Assay: Activation of fast skeletal myofibrils (PUMA coupled-enzyme ATPase assay)
Assay type: biochemical
Details: concentration at which the compound increased the enzymatic activity by 40%; calcium at pCa25; PM12 buffer pH 6.8
Procedure, shortened: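 Rabbit psoas myofibrils (Triton-washed, ~90% fast fibers) at calcium giving 25% of maximal ATPase rate (pCa25). ADP regenerated via pyruvate kinase/lactate dehydrogenase coupling, NADH oxidation read as absorbance at 340 nm. Buffer 12 mM PIPES, 2 mM MgCl2, 1 mM DTT, pH 6.8.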

SMILES | AC1.4 [µM]
CC[C@H](C)[C@H]1C(=O)Nc2cnccc2N1C(=O)c1ccc(=O)n(C)c1 [Compound 91, (S)-2-((S)-sec-butyl)-1-(1-methyl-6-oxo-1,6-dihydropyridine-3-carbonyl)-1,4-dihydropyrido[3,4-b]pyrazin-3(2H)-one] | 0.72
CC[C@H](C)[C@H]1C(=O)Nc2cccnc2N1C(=O)c1ccc(=O)n(C)c1 [Compound 92, (S)-3-((S)-sec-Butyl)-4-(1-methyl-6-oxo-1,6-dihydropyridine-3-carbonyl)-3,4-dihydropyrido[2,3-b]pyrazin-2(1H)-one] | 1.03
CC[C@H](C)[C@H]1C(=O)Nc2cccnc2N1C(=O)c1cnn(C)c1 [Compound 93, (S)-3-((S)-sec-butyl)-4-(1-methyl-1H-pyrazole-4-carbonyl)-3,4-dihydropyrido[2,3-b]pyrazin-2(1H)-one] | 1.73
CC[C@H](C)[C@H]1C(=O)Nc2cncnc2N1C(=O)c1cnn(C)c1 [Compound 94, (S)-7-((S)-sec-butyl)-8-(1-methyl-1H-pyrazole-4-carbonyl)-7,8-dihydropteridin-6(5H)-one] | 1.66
CC[C@H](C)[C@H]1C(=O)Nc2ncccc2N1C(=O)c1cnn(C)c1 [Compound 95, (S)-2-((S)-sec-butyl)-1-(1-methyl-1H-pyrazole-4-carbonyl)-1,4-dihydropyrido[2,3-b]pyrazin-3(2H)-one] | 0.84
CC(C)C[C@H]1C(=O)Nc2cnccc2N1C(=O)c1cnn(C)c1 [Compound 96, (S)-2-isobutyl-1-(1-methyl-1H-pyrazole-4-carbonyl)-1,4-dihydropyrido[3,4-b]pyrazin-3(2H)-one] | 0.6
CC[C@H](C)[C@H]1C(=O)Nc2cnccc2N1C(=O)c1ccccc1 [Compound 97, (S)-1-benzoyl-2-((S)-sec-butyl)-1,4-dihydropyrido[3,4-b]pyrazin-3(2H)-one] | 0.28
CC[C@H](C)[C@H]1C(=O)Nc2cnccc2N1C(=O)c1cccc(C)c1 [Compound 98, (S)-2-((S)-sec-butyl)-1-(3-methylbenzoyl)-1,4-dihydropyrido[3,4-b]pyrazin-3(2H)-one] | 0.13
CC[C@H](C)[C@H]1C(=O)Nc2ccccc2N1C(N)=O [Compound 99, (S)-2-((S)-sec-butyl)-3-oxo-3,4-dihydroquinoxaline-1(2H)-carboxamide] | 0.87
CC[C@H](C)[C@H]1C(=O)Nc2c(F)cccc2N1C(N)=O [Compound 100, (S)-2-((S)-sec-Butyl)-5-fluoro-3-oxo-3,4-dihydroquinoxaline-1(2H)-carboxamide] | 1.58
CC[C@H](C)[C@H]1C(=O)Nc2ccccc2N1C(=O)N1CC(O)C1 [Compound 101, (S)-3-((S)-sec-butyl)-4-(3-hydroxyazetidine-1-carbonyl)-3,4-dihydroquinoxalin-2(1H)-one] | 2.1
CC[C@H](C)[C@H]1C(=O)Nc2ccccc2N1C(=O)NC [Compound 102, (S)-2-((S)-sec-butyl)-N-methyl-3-oxo-3,4-dihydroquinoxaline-1(2H)-carboxamide] | 0.94
CCNC(=O)N1c2ccccc2NC(=O)[C@@H]1[C@@H](C)CC [Compound 103, (S)-2-((S)-sec-butyl)-N-ethyl-3-oxo-3,4-dihydroquinoxaline-1(2H)-carboxamide] | 0.78
CC[C@H](C)[C@H]1C(=O)Nc2ccccc2N1C(=O)N1CCCC1 [Compound 104, (S)-3-((S)-sec-butyl)-4-(pyrrolidine-1-carbonyl)-3,4-dihydroquinoxalin-2(1H)-one] | 1.31
CC[C@H](C)[C@H]1C(=O)Nc2ccccc2N1C(=O)NCCO [Compound 105, (S)-2-((S)-sec-butyl)-N-(2-hydroxyethyl)-3-oxo-3,4-dihydroquinoxaline-1(2H)-carboxamide] | 2.23
CC[C@H](C)[C@H]1C(=O)Nc2ccccc2N1C(=O)N1CC[C@H](O)C1 [Compound 106, (S)-3-((S)-sec-butyl)-4-((S)-3-hydroxypyrrolidine-1-carbonyl)-3,4-dihydroquinoxalin-2(1H)-one] | 1.77
CC[C@H](C)[C@H]1C(=O)Nc2ccccc2N1C(=O)N1CC[C@H](CO)C1 [Compound 107, (S)-3-((S)-sec-butyl)-4-((S)-3-(hydroxymethyl)pyrrolidine-1-carbonyl)-3,4-dihydroquinoxalin-2(1H)-one] | 0.44

SMILES | AC1.4 [µM]
CC[C@H](C)[C@H]1C(=O)Nc2ccccc2N1C(=O)N1CC[C@@H](CO)C1 [Compound 108, (S)-3-((S)-sec-butyl)-4-((R)-3-(hydroxymethyl)pyrrolidine-1-carbonyl)-3,4-dihydroquinoxalin-2(1H)-one] | 2.77
CC[C@H](C)[C@H]1C(=O)Nc2ccccc2N1C(=O)CO [Compound 109, (S)-3-((S)-sec-butyl)-4-(2-hydroxyacetyl)-3,4-dihydroquinoxalin-2(1H)-one] | 1.51
CC[C@H](C)[C@H]1C(=O)Nc2ccccc2N1C(=O)CCO [Compound 110, (S)-3-((S)-sec-butyl)-4-(3-hydroxypropanoyl)-3,4-dihydroquinoxalin-2(1H)-one] | 1.18
CC[C@H](C)[C@H]1C(=O)Nc2ccccc2N1C(=O)N1CC(CO)C1 [Compound 111, (S)-3-((S)-sec-butyl)-4-(3-(hydroxymethyl)azetidine-1-carbonyl)-3,4-dihydroquinoxalin-2(1H)-one] | 2.06
CC[C@H](C)[C@H]1C(=O)Nc2ccccc2N1C(=O)N1CC(F)C1 [Compound 112, (S)-3-((S)-sec-butyl)-4-(3-fluoroazetidine-1-carbonyl)-3,4-dihydroquinoxalin-2(1H)-one] | 1.01
CC[C@H](C)[C@H]1C(=O)Nc2ccc(F)cc2N1C(N)=O [Compound 113, (S)-2-((S)-sec-butyl)-7-fluoro-3-oxo-3,4-dihydroquinoxaline-1(2H)-carboxamide] | 2.01
CC[C@H](C)[C@H]1C(=O)Nc2ccccc2N1C(=O)N1CCC[C@H](O)C1 [Compound 114, (S)-3-((S)-sec-butyl)-4-((S)-3-hydroxypiperidine-1-carbonyl)-3,4-dihydroquinoxalin-2(1H)-one] | 1.69
CC[C@H](C)[C@H]1C(=O)Nc2ccccc2N1C(=O)N(C)CCCO [Compound 115, (S)-2-((S)-sec-butyl)-N-(3-hydroxypropyl)-N-methyl-3-oxo-3,4-dihydroquinoxaline-1(2H)-carboxamide] | 2.29
CC[C@H](C)[C@H]1C(=O)Nc2ccccc2N1C(=O)N1CCC[C@H](CO)C1 [Compound 116, (S)-3-((S)-sec-butyl)-4-((S)-3-(hydroxymethyl)piperidine-1-carbonyl)-3,4-dihydroquinoxalin-2(1H)-one] | 0.83
CC[C@H](C)[C@H]1C(=O)Nc2ccccc2N1C(=O)N1CC(F)(F)C1 [Compound 117, (S)-3-((S)-sec-butyl)-4-(3,3-difluoroazetidine-1-carbonyl)-3,4-dihydroquinoxalin-2(1H)-one] | 1.24
CC[C@H](C)[C@H]1C(=O)Nc2ccccc2N1C(=O)OC [Compound 125, methyl (S)-2-((S)-sec-butyl)-3-oxo-3,4-dihydroquinoxaline-1(2H)-carboxylate] | 1.25
CC[C@H](C)[C@H]1C(=O)Nc2ccccc2N1C(=O)N[C@H]1CCNC1 [Compound 126, (S)-2-((S)-sec-butyl)-3-oxo-N-((S)-pyrrolidin-3-yl)-3,4-dihydroquinoxaline-1(2H)-carboxamide] | 1.53
CC[C@H](C)[C@H]1C(=O)Nc2ccccc2N1C(=O)N[C@H]1CCN(C)C1 [Compound 129, (S)-2-((S)-sec-butyl)-N-((S)-1-methylpyrrolidin-3-yl)-3-oxo-3,4-dihydroquinoxaline-1(2H)-carboxamide] | 1.3
CC[C@H](C)[C@H]1C(=O)Nc2ccccc2N1C(=O)NC1CCN(CCO)CC1 [Compound 130, (S)-2-((S)-sec-butyl)-N-(1-(2-hydroxyethyl)piperidin-4-yl)-3-oxo-3,4-dihydroquinoxaline-1(2H)-carboxamide] | 2.13
CC[C@H](C)[C@H]1C(=O)Nc2ccccc2N1C(=O)N(C)CCO [Compound 131, (S)-2-((S)-sec-butyl)-N-(2-hydroxyethyl)-N-methyl-3-oxo-3,4-dihydroquinoxaline-1(2H)-carboxamide] | 2.15
CC[C@H](C)[C@H]1C(=O)Nc2ccccc2N1C(=O)N[C@H]1C[C@H](O)C1 [Compound 132, (S)-2-((S)-sec-butyl)-N-((1R,3S)-3-hydroxycyclobutyl)-3-oxo-3,4-dihydroquinoxaline-1(2H)-carboxamide] | 0.64
CC[C@H](C)[C@H]1C(=O)Nc2ccccc2N1C(=O)N[C@H]1C[C@@H](O)C1 [Compound 133, (S)-2-((S)-sec-butyl)-N-((1s,3R)-3-hydroxycyclobutyl)-3-oxo-3,4-dihydroquinoxaline-1(2H)-carboxamide] | 1.68

— patent US20250296916A1, “BICYCLIC PIPERAZINONES AND THERAPEUTIC USES THEREOF” (Cytokinetics, Inc., priority 2022, published 2025)
